pIC50, pKi: −log10 of the molar value.
What was measured:
[1] = molecular target: Cruzipain (Trypanosoma cruzi) (UniProt P25779); assay: Inhibition of Trypanosoma cruzi cruzain at 1 uM after 5 mins
Jurkat = assay: cells; details: Homo sapiens
Rhodesain = Rhodesain (Trypanosoma brucei rhodesiense, UniProt Q95PM0)
Cruzipain = Cruzipain (Trypanosoma cruzi, UniProt P25779)
[2] = system: Trypanosoma brucei brucei; assay: microbe, parasite or virus in culture; details: Jurkat
[3] = molecular target: T1, Cathepsin B-like cysteine protease (Trypanosoma brucei, UniProt Q6R7Z5)
T1 sequence (Q6R7Z5 whole entry): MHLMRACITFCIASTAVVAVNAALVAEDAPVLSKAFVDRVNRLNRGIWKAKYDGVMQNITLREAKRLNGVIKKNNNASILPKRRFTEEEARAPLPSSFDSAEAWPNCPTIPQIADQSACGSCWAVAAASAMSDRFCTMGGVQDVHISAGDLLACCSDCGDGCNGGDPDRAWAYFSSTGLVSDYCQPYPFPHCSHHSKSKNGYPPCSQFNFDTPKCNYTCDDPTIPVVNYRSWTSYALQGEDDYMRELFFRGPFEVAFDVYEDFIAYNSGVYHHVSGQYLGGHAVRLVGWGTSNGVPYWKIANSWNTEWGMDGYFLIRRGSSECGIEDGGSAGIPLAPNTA

[4] = molecular target: Rhodesain (Trypanosoma brucei rhodesiense) (UniProt Q95PM0)
Chain of Rhodesain (Trypanosoma brucei rhodesiense) (Q95PM0 1-450): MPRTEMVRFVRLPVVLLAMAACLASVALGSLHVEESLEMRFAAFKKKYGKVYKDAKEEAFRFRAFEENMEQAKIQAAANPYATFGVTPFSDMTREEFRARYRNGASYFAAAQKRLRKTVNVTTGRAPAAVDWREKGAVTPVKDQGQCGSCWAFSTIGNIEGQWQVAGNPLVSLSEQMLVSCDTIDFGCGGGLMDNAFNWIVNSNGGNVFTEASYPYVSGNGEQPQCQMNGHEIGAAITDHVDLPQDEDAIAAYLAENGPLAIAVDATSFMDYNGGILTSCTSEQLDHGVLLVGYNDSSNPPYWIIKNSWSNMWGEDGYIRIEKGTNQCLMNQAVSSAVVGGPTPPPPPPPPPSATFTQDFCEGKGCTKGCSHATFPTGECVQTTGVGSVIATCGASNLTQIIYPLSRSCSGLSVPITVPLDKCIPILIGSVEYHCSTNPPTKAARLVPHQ

Chain of Rhodesain (Q95PM0 whole entry): as the sequence (Q95PM0 1-450) above
Chain of Cruzipain (Trypanosoma cruzi) (P25779 123-467 limits assumed): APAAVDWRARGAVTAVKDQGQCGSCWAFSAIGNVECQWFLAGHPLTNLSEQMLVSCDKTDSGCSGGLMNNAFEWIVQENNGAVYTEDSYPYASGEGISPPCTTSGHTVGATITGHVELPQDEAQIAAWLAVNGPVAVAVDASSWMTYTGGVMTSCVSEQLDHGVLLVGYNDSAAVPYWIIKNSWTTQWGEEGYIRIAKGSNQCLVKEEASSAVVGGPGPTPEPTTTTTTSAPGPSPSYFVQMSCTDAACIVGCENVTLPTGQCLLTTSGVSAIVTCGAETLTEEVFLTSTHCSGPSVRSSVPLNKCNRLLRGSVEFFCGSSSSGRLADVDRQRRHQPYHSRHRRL
Chain of Cruzipain (P25779 whole entry): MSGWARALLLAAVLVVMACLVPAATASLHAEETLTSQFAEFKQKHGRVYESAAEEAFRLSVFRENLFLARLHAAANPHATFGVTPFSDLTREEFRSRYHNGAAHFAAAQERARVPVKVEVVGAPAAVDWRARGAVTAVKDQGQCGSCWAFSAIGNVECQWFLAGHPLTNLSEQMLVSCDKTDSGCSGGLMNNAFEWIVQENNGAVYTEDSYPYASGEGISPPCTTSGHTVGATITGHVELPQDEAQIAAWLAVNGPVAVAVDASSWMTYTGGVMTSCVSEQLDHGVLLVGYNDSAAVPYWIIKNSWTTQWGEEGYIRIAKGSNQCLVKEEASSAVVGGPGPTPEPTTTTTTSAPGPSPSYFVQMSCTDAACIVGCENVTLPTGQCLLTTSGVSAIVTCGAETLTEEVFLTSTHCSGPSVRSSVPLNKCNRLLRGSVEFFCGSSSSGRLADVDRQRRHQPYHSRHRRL

O=C(N[C@H](/C=C/S(=O)(=O)c1ccccc1)CCc1ccccc1)c1ccccc1C(=O)c1ccc(Cl)cc1
inhibition [1]: 3%

O=C(N[C@H](/C=C/S(=O)(=O)c1ccccc1)CCc1ccccc1)c1cc(-c2ccncc2)no1
pIC50 (Jurkat): < 4.00 | pIC50 (Rhodesain): 7.30 | pKi (Rhodesain): 4.79 | inhibition [1]: < 5% | pIC50 (Cruzipain): 5.30 | GI50 [2]: 10 µM | pIC50 [3]: < 4.00 | Kinact [4]: 0.0091 s⁻¹

CC(C)(C)c1cc(C(=O)N[C@H](/C=C/S(=O)(=O)c2ccccc2)CCc2ccccc2)n(Cc2ccccc2)n1
inhibition [1]: 2%

O=C(N[C@H](/C=C/S(=O)(=O)c1ccccc1)CCc1ccccc1)[C@H]1CCCC[C@@H]1C(=O)c1ccc(Cl)cc1
pIC50 (Rhodesain): 4.25 | pKi (Rhodesain): 5.31 | pIC50 (Cruzipain): < 4.00 | pIC50 [3]: < 4.00 | Kinact [4]: 0.0007 s⁻¹

O=C(N[C@H](/C=C/S(=O)(=O)c1ccccc1)CCc1ccccc1)[C@@H]1CCCC[C@H]1C(=O)c1ccc(Cl)cc1
pIC50 (Rhodesain): 7.00 | pKi (Rhodesain): 6.10 | pIC50 (Cruzipain): 7.30 | pIC50 [3]: 4.80 | Kinact [4]: 0.00051 s⁻¹

O=C(N[C@H](/C=C/S(=O)(=O)c1ccccc1)CCc1ccccc1)c1cc(-c2ccccn2)no1
pIC50 (Jurkat): < 4.00 | pIC50 (Rhodesain): 7.30 | pKi (Rhodesain): 5.13 | inhibition [1]: < 5% | pIC50 (Cruzipain): 5.22 | GI50 [2]: 10 µM | pIC50 [3]: < 4.00 | Kinact [4]: 0.0038 s⁻¹

Cc1nc(-c2ccccc2)sc1C(=O)N[C@H](/C=C/S(=O)(=O)c1ccccc1)CCc1ccccc1
pIC50 (Jurkat): < 4.00 | pIC50 (Rhodesain): > 8.22 | pKi (Rhodesain): 6.49 | inhibition [1]: < 5% | pIC50 (Cruzipain): 5.00 | GI50 [2]: > 100 µM | pIC50 [3]: < 4.00 | Kinact [4]: 0.0018 s⁻¹

O=C(N[C@H](/C=C/S(=O)(=O)c1ccccc1)CCc1ccccc1)c1cc(-c2ccccc2)no1
pIC50 (Jurkat): < 4.00 | pIC50 (Rhodesain): 8.00 | pKi (Rhodesain): 4.89 | pIC50 (Cruzipain): 5.70 | GI50 [2]: > 100 µM | pIC50 [3]: 4.40 | Kinact [4]: 0.0031 s⁻¹

Cc1nc(-c2cnccn2)sc1C(=O)N[C@H](/C=C/S(=O)(=O)c1ccccc1)CCc1ccccc1
pIC50 (Jurkat): < 4.00 | pIC50 (Rhodesain): 8.00 | pKi (Rhodesain): 5.32 | pIC50 (Cruzipain): 6.00 | GI50 [2]: 7 µM | pIC50 [3]: < 4.00 | Kinact [4]: 0.0079 s⁻¹

Cc1onc(-c2ccc(F)cc2)c1C(=O)N[C@H](/C=C/S(=O)(=O)c1ccccc1)CCc1ccccc1
inhibition [1]: 12.5%

CN1CCN(C(=O)N[C@@H](Cc2ccccc2)C(=O)N[C@H](/C=C/S(=O)(=O)c2ccccc2)CCc2ccccc2)CC1 [K-777]
GI50 [2]: 7 µM | pIC50 [3]: 5.40

O=C(N[C@H](/C=C/S(=O)(=O)c1ccccc1)CCc1ccccc1)c1cc(-c2cccnc2)no1
pIC50 (Jurkat): < 4.00 | pIC50 (Rhodesain): 8.00 | pIC50 (Cruzipain): 6.00 | GI50 [2]: > 100 µM | pIC50 [3]: < 4.00

Cc1nc(-c2cccnc2)sc1C(=O)N[C@H](/C=C/S(=O)(=O)c1ccccc1)CCc1ccccc1
pIC50 (Jurkat): 4.01 | pIC50 (Rhodesain): 7.52 | pIC50 (Cruzipain): 5.70 | GI50 [2]: 20 µM | pIC50 [3]: < 4.00

Reference: ChEMBL document CHEMBL1154298, “Novel non-peptidic vinylsulfones targeting the S2 and S3 subsites of parasite cysteine proteases” (Bioorg Med Chem Lett, 2009)
